Patent US12655116B2, “Substituted isophthalic acid diamides” (Bayer Aktiengesellschaft, priority 2020, dated 2026)

How the values were obtained:
MATIN [1] = test: Post-emergence herbicidal action against MATIN; type: in vivo, Matricaria inodora; details: Tripleurospermum inodorum, 504 h, dosage 20 g/ha
Outline: (§1)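 Herbicidal action is a visual percentage rating (0% = as untreated control, 100% = plants dead) made roughly 3 weeks after treatment. Plants were grown in sandy loam in the greenhouse and treated at the one-leaf stage, 2 to 3 weeks post-sowing. Treatment was a foliar spray of wettable-powder or emulsion-concentrate formulations at 600 to 800 l/ha water plus 0.2% wetting agent.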

MATIN [2] = test: Pre-emergence herbicidal action against MATIN; type: in vivo, Matricaria inodora; details: Tripleurospermum inodorum, 504 h
Outline: (§2)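 Sandy loam pots, seeds covered with soil, then surface-treated with WP or EC formulations at 600–800 l/ha water plus 0.2% wetting agent. Greenhouse, 3 weeks. Percent damage vs untreated controls.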

VIOTR [3] = test: Post-emergence herbicidal action against VIOTR; type: in vivo, Viola tricolor; details: Viola tricolor, 504 h
Outline: as §1

SETVI [4] = test: Post-emergence herbicidal action against SETVI; type: in vivo, Setaria viridis; details: Setaria viridis, 504 h
Outline: as §1

VERPE = test: Post-emergence herbicidal action against VERPE; type: in vivo, Veronica persica; details: Veronica persica, 504 h, 20 g/ha
Outline: as §1

ALOMY [5] = test: Pre-emergence herbicidal action against ALOMY; type: in vivo, Alopecurus myosuroides; details: Alopecurus myosuroides, 504 h, pre-emergence
Outline: as §2

AVEFA [6] = test: Post-emergence herbicidal action against AVEFA; type: in vivo, Avena fatua; details: Avena fatua, 504 h, visual assessment about 3 weeks after treatment, 100% = plants have died, 0% = like control plants
Outline: as §1

STEME [7] = test: Pre-emergence herbicidal action against STEME; type: in vivo, Stellaria media; details: Stellaria media, 504 h
Outline: as §2

ECHCG [8] = test: Pre-emergence herbicidal action against ECHCG; type: in vivo, Echinochloa crus-galli; details: Echinochloa crus-galli, 504 h, 80 g/ha
Outline: as §2

AVEFA [9] = test: Pre-emergence herbicidal action against AVEFA; type: in vivo, Avena fatua; details: Avena fatua, 504 h; 80 g/ha, pre-emergence
Outline: as §2

HORMU = test: Pre-emergence herbicidal action against HORMU; type: in vivo, Hordeum murinum; details: Hordeum murinum, 504 h; 80 g/ha, pre-emergence
Outline: as §2

DIGSA [10] = test: Post-emergence herbicidal action against DIGSA; type: in vivo, Digitaria sanguinalis; details: Digitaria sanguinalis, 504 h
Outline: as §1

ALOMY [11] = test: Post-emergence herbicidal action against ALOMY; type: in vivo, Alopecurus myosuroides; details: Alopecurus myosuroides, 504 h, dosage 20 g/ha, visual assessment about 3 weeks after treatment vs untreated controls
Outline: as §1

DIGSA [12] = test: Pre-emergence herbicidal action against DIGSA; type: in vivo, Digitaria sanguinalis; details: Digitaria sanguinalis, 504 h
Outline: as §2

PHBPU = test: Post-emergence herbicidal action against PHBPU; type: in vivo, Pharbitis purpurea; details: Ipomoea purpurea, 504 h
Outline: as §1

STEME [13] = test: Post-emergence herbicidal action against STEME; type: in vivo, Stellaria media; details: Stellaria media, 504 h
Outline: as §1

ECHCG [14] = test: Post-emergence herbicidal action against ECHCG; type: in vivo, Echinochloa crus-galli; details: Echinochloa crus-galli, 504 h, dosage 20 g/ha
Outline: as §1

AMARE [15] = test: Post-emergence herbicidal action against AMARE; type: in vivo, Amaranthus retroflexus; details: Amaranthus retroflexus, 504 h, 20 g/ha, visual assessment about 3 weeks after treatment, 100% = plants have died, 0% = like control plants
Outline: as §1

ABUTH [16] = test: Post-emergence herbicidal action against ABUTH; type: in vivo, Abutilon theophrasti; details: Abutilon theophrasti, 504 h, visual assessment about 3 weeks after treatment vs untreated controls
Outline: as §1

SETVI [17] = test: Pre-emergence herbicidal action against SETVI; type: in vivo, Setaria viridis; details: Setaria viridis, 504 h
Outline: as §2

POLCO = test: Pre-emergence herbicidal action against POLCO; type: in vivo, Polygonum convolvulus; details: Fallopia convolvulus, 504 h, dosage 80 g/ha
Outline: as §2

VIOTR [18] = test: Pre-emergence herbicidal action against VIOTR; type: in vivo, Viola tricolor; details: Viola tricolor, 504 h
Outline: as §2

AMARE [19] = test: Pre-emergence herbicidal action against AMARE; type: in vivo, Amaranthus retroflexus; details: Amaranthus retroflexus, 504 h, scored visually after 3 weeks vs untreated controls, 100% = plants have died, 0% = like control plants
Outline: as §2

ABUTH [20] = test: Pre-emergence herbicidal action against ABUTH; type: in vivo, Abutilon theophrasti; details: Abutilon theophrasti, 504 h
Outline: as §2

LOLRI = test: Pre-emergence herbicidal action against LOLRI; type: in vivo, Lolium rigidum; details: Lolium rigidum, 504 h, 80 g/ha
Outline: as §2

[21] = 80 g/ha, scored visually after 3 weeks vs untreated controls (100% = plants have died, 0% = like control plants)

## CCNC(=O)c1c(C(F)(F)F)ccc(C(=O)Nc2nnnn2CC)c1Br [Example 2-208]
MATIN [1]
  pest or weed control at 20 g/ha: 80%
MATIN [2]; dosage 20 g/ha
  pest or weed control at 20 g/ha: 100%
MATIN [2]; dosage 80 g/ha
  pest or weed control at 80 g/ha: 100%
VIOTR [3]; 5 g/ha
  pest or weed control at 5 g/ha: 100%
VIOTR [3]; 20 g/ha
  pest or weed control at 20 g/ha: 100%
SETVI [4]; dosage 5 g/ha
  pest or weed control at 5 g/ha: 80%
SETVI [4]; dosage 20 g/ha
  pest or weed control at 20 g/ha: 80%
VERPE
  pest or weed control at 20 g/ha: 80%
ALOMY [5]; [21]
  pest or weed control at 80 g/ha: 90%
ALOMY [5]; 20 g/ha, scored visually after 3 weeks, 100% = plants have died, 0% = like control plants
  pest or weed control at 20 g/ha: 80%
AVEFA [6]; 5 g/ha
  pest or weed control at 5 g/ha: 80%
AVEFA [6]; 20 g/ha
  pest or weed control at 20 g/ha: 90%
STEME [7]; dosage 20 g/ha
  pest or weed control at 20 g/ha: 100%
STEME [7]; dosage 80 g/ha
  pest or weed control at 80 g/ha: 100%
ECHCG [8]
  pest or weed control at 80 g/ha: 100%
AVEFA [9]
  pest or weed control at 80 g/ha: 100%
HORMU
  pest or weed control at 80 g/ha: 90%
DIGSA [10]; 5 g/ha
  pest or weed control at 5 g/ha: 80%
DIGSA [10]; 20 g/ha
  pest or weed control at 20 g/ha: 90%
ALOMY [11]
  pest or weed control at 20 g/ha: 80%
DIGSA [12]; dosage 20 g/ha
  pest or weed control at 20 g/ha: 90%
DIGSA [12]; dosage 80 g/ha
  pest or weed control at 80 g/ha: 100%
PHBPU; dosage 5 g/ha
  pest or weed control at 5 g/ha: 80%
PHBPU; dosage 20 g/ha
  pest or weed control at 20 g/ha: 80%
STEME [13]; 20 g/ha
  pest or weed control at 20 g/ha: 100%
STEME [13]; dosage 5 g/ha
  pest or weed control at 5 g/ha: 80%
ECHCG [14]
  pest or weed control at 20 g/ha: 80%
AMARE [15]
  pest or weed control at 20 g/ha: 100%
ABUTH [16]; dosage 5 g/ha
  pest or weed control at 5 g/ha: 90%
ABUTH [16]; dosage 20 g/ha
  pest or weed control at 20 g/ha: 90%
SETVI [17]; dosage 20 g/ha
  pest or weed control at 20 g/ha: 80%
SETVI [17]; dosage 80 g/ha
  pest or weed control at 80 g/ha: 100%
POLCO
  pest or weed control at 80 g/ha: 90%
VIOTR [18]; dosage 20 g/ha
  pest or weed control at 20 g/ha: 100%
VIOTR [18]; dosage 80 g/ha
  pest or weed control at 80 g/ha: 100%
AMARE [19]; 20 g/ha
  pest or weed control at 20 g/ha: 100%
AMARE [19]; 80 g/ha
  pest or weed control at 80 g/ha: 100%
ABUTH [20]; [21]
  pest or weed control at 80 g/ha: 100%
ABUTH [20]; dosage 20 g/ha, scored visually after 3 weeks vs untreated controls, 100% = plants have died, 0% = like control plants, read-out: Pre-emergence action against ABUTH (herbicidal activity in percent)
  pest or weed control at 20 g/ha: 100%
LOLRI
  pest or weed control at 80 g/ha: 80%
